Laboratory results published in paper PMC12347832, “Multi-Component Synthesis of New Fluorinated-Pyrrolo[3,4-b]pyridin-5-ones Containing the 4-Amino-7-chloroquinoline Moiety and In Vitro–In Silico Studies Against Human SARS-CoV-2” (International Journal of Molecular Sciences, 2025).
Where two headings read alike, the source gives them in different places.

Columns and labels:
[1] = Cell viability assay (crystal violet); settings: African green monkey
SARS-CoV-2 = assay: Plaque reduction / time-of-addition assay; assay type: cell-based; settings: for IC50: Vero E6, MOI 0.1, plaque assay
SARS-CoV = settings: cited from earlier work
[2] = Severe acute respiratory syndrome coronavirus 2, Vero C1008, compound added at the time of infection (0 h), read-out: IC50 (µM) 0 h
[3] = Severe acute respiratory syndrome coronavirus 2, Vero C1008, read-out: IC50 (µM) 1 h, compound added 1 h postinfection

Structure (SMILES) | viability at 48 h, 10 µM [1] | IC50 (SARS-CoV-2; [2]) | IC50 (SARS-CoV-2; [3]) | plaque reduction (SARS-CoV-2; compound added 1 h postinfection) | IC50 (SARS-CoV)
CCN(CC)c1cc2c(nc1Cc1ccccc1)C(c1ccc(F)cc1)N(CCNc1ccnc3cc(Cl)ccc13)C2=O (stereo not drawn) [19d, 2-Benzyl-6-(2-((7-chloroquinolin-4-yl)amino)ethyl)-3-(diethylamino)-7-(4-fluorophenyl)-6,7-dihydro-5H-pyrrolo[3,4-b]pyridin-5-one] | > 90% | 6.74 µM |  |  | 
O=C1c2cc(N3CCOCC3)c(Cc3ccccc3)nc2C(c2ccccc2F)N1CCNc1ccnc2cc(Cl)ccc12 (stereo not drawn) [19e, 2-Benzyl-6-(2-((7-chloroquinolin-4-yl)amino)ethyl)-7-(2-fluorophenyl)-3-morpholino-6,7-dihydro-5H-pyrrolo[3,4-b]pyridin-5-one] |  | 17.1 µM |  |  | 
O=C1c2cc(N3CCOCC3)c(Cc3ccccc3)nc2C(c2ccccc2F)N1CCCNc1ccnc2cc(Cl)ccc12 (stereo not drawn) [19f, 2-Benzyl-6-(3-((7-chloroquinolin-4-yl)amino)propyl)-7-(2-fluorophenyl)-3-morpholino-6,7-dihydro-5H-pyrrolo[3,4-b]pyridin-5-one] | > 80% | 9.23 µM |  |  | 
O=C1c2cc(N3CCOCC3)c(Cc3ccccc3)nc2C(c2ccc(C(F)(F)F)cc2)N1CCNc1ccnc2cc(Cl)ccc12 (stereo not drawn) [19g, 2-Benzyl-6-(2-((7-chloroquinolin-4-yl)amino)ethyl)-3-morpholino-7-(4-(trifluoromethyl)phenyl)-6,7-dihydro-5H-pyrrolo[3,4-b]pyridin-5-one] | > 80% | 7.5 µM | 6.98 µM |  | 
CCN(CC)c1cc2c(nc1Cc1ccccc1)C(c1ccc(C(F)(F)F)cc1)N(CCNc1ccnc3cc(Cl)ccc13)C2=O (stereo not drawn) [19i, 2-Benzyl-6-(2-((7-chloroquinolin-4-yl)amino)ethyl)-3-(diethylamino)-7-(4-(trifluoromethyl)phenyl)-6,7-dihydro-5H-pyrrolo[3,4-b]pyridin-5-one] | > 90% | 24 µM | 5.29 µM | approximately one logarithmic unit | 
O=C1c2cc(N3CCOCC3)c(Cc3ccccc3)nc2C(c2cc(C(F)(F)F)cc(C(F)(F)F)c2)N1CCNc1ccnc2cc(Cl)ccc12 (stereo not drawn) [19j, 2-Benzyl-7-(3,5-bis(trifluoromethyl)phenyl)-6-(2-((7-chloroquinolin-4-yl)amino)ethyl)-3-morpholino-6,7-dihydro-5H-pyrrolo[3,4-b]pyridin-5-one] |  | 15 µM |  |  | 
O=C1c2cc(N3CCOCC3)c(Cc3ccccc3)nc2C(c2c(F)c(F)c(F)c(F)c2F)N1CCCNc1ccnc2cc(Cl)ccc12 (stereo not drawn) [19l, 2-Benzyl-6-(3-((7-chloroquinolin-4-yl)amino)propyl)-3-morpholino-7-(perfluorophenyl)-6,7-dihydro-5H-pyrrolo[3,4-b]pyridin-5-one] |  | 7.06 µM |  |  | 
CCN(CC)CCCC(C)Nc1ccnc2cc(Cl)ccc12 (stereo not drawn) [Chloroquine] |  |  |  |  | 8.8 µM
